Test results: paper PMC13586308, “Cell type–selective targeting by heterobifunctional protein binders via in-cell enrichment” (Nature Communications, 2026)
Where two headings read alike, the source gives them in different places.

Legend:
MYC mRNA = assay: quantitative RT-PCR of MYC mRNA, MV4-11; assay type: cell-based, human; settings: MV4-11
BRD4 43-463 Y390A = assay: competitive FP assay, BRD4 tandem construct Y390A; assay type: binding
BRD4 43-463 Y97A = assay: competitive FP assay, BRD4 tandem construct Y97A; assay type: binding
BRD2BD1 = molecular target: T1, BRD2BD1 (Homo sapiens, UniProt P25440); assay: competitive FP assay, BRD2 BD1 -/+ FKBP12; assay type: binding
T1 construct: to the isolated BD1 and BD2 domains of BRD2, BRD3 and BRD4

BRD2BD2 = BRD2BD2 (Homo sapiens, UniProt P25440); assay: competitive FP assay, BRD2 BD2 -/+ FKBP12; assay type: binding
BRD3BD1 = molecular target: T2, BRD3BD1 (Homo sapiens, UniProt Q15059); assay: competitive FP assay, BRD3 BD1 -/+ FKBP12; assay type: binding
T2 construct: to the isolated BD1 and BD2 domains of BRD2, BRD3 and BRD4

BRD3BD2 = molecular target: T3, BRD3BD2 (Homo sapiens, UniProt Q15059); assay: competitive FP assay, BRD3 BD2 -/+ FKBP12; assay type: binding
T3 construct: to the isolated BD1 and BD2 domains of BRD2, BRD3 and BRD4

FKBP12 [1] = molecular target: T4, FKBP12 (Homo sapiens, UniProt P62942); assay: competitive fluorescence polarization assay, binding to FKBP12; settings: competitive FP assay
BRD4^BD1 = molecular target: T5, BRD4^BD1 (Homo sapiens, UniProt O60885); assay: competitive fluorescence polarization assay, BRD4 BD1 -/+ presenter protein; assay type: binding; settings: for α BRD4^BD1 (binding cooperativity factor): ratio of binding in absence or presence of FKBP12
T5 construct: to the isolated BD1 and BD2 domains of BRD2, BRD3 and BRD4

BRD4^BD2 = molecular target: T6, BRD4^BD2 (Homo sapiens, UniProt O60885); assay: competitive fluorescence polarization assay, BRD4 BD2 -/+ presenter protein; assay type: binding; settings: for α BRD4^BD2 (binding cooperativity factor): ratio of binding in absence or presence of FKBP12
T6 construct: to the isolated BD1 and BD2 domains of BRD2, BRD3 and BRD4

FKBP12 [2] = molecular target: T4, FKBP12; assay: NanoBRET FKBP12 in intact HEK293 cells; assay type: cell-based
BRD4 = molecular target: T7, BRD4 (Homo sapiens, UniProt O60885); assay: NanoBRET BRD4, transient BRD4-NanoLuc in HEK293T cells; assay type: cell-based; settings: intact HEK293 cells
T7 construct: full-length BRD4 fused to NanoLuc at N terminus; expressed in transfected cells; host or cells: HEK293T
Method: The NanoBRET assay was performed as described previously[26],[39]. To study BRD4 engagement, we employed two models: cells stably expressing BRD4-NanoLuc and cells with transient BRD4-NanoLuc expression. For stable cell lines, the coding sequence of human BRD4 (Isoform B) was fused in-frame to NanoLuc luciferase under the control of the human ubiquitin C (UbC) promoter, with left and right homology arms targeting the AAVS1 locus in intron 1 of the PPP1R12C gene to facilitate genomic integration. PC3 prostate cancer cells were transfected with this construct and vectors expressing Cas9 and an sgRNA targeting the AAVS1 locus using Lipofectamine 3000 (Invitrogen). Successful integrands were selected with blasticidin. Expression of the fusion protein was confirmed by western blot. For transient experiments, full-length BRD4 fused to NanoLuc at N terminus, was cloned into an expression plasmid and transfected into HEK293T cells using FuGENE HD (Promega, E2312), with protein expression allowed for 20 h. Serially diluted inhibitors and BRD Tracer-02 (Promega, TracerDB ID: T000022) at the Tracer KD concentration (from TracerDB)[40] were dispensed into white 384-well plates (Greiner 781207) using an ECHO 550 acoustic dispenser (Labcyte). The cells were trypsinized, resuspended in Opti-MEM without phenol red (Life Technologies), and seeded at 2 × 10^5 cells/mL. After equilibration for 2 h at 37 °C/5% CO₂ following compound treatment, the NanoBRET® NanoGlo Substrate + Extracellular NanoLuc® Inhibitor (Promega, N2162) was added according to the manufacturer’s protocol, and filtered luminescence was measured on a PHERAstar plate reader (BMG Labtech) using a donor (450 nm BP) and acceptor (610 nm LP) filter pair. Competitive displacement data were analyzed using GraphPad Prism 9 with a normalized 3-parameter curve fit: Y = 100/(1 + 10^(X − log IC₅₀)). For BRET measurements after FKBP12 knockdown in stably expressing BRD4 Nano-Luc reporter cell line, 10 nL/per well of the FKBP12 PROTAC was pipetted to each well using Labcyte to achieve the final concentration of 200 nM and the plated cells were incubated over-night at 37 °C and 5% CO2. BRET measurements were performed as outlined above.

[3] = absence of FKBP12, 2 nM JQ1-FL tracer, read-out: Binding to BRD4^BD1 - FKBP12 Kd
[4] = presence of 15 µM FKBP12, read-out: Binding to BRD4^BD1 + FKBP12 Kd (converted)
[5] = presence of 15 µM FKBP12, read-out: Binding to BRD4^BD2 + FKBP12 Kd (converted)
[6] = absence of FKBP12, 2 nM JQ1-FL tracer, read-out: Binding to BRD4^BD2 - FKBP12 Kd

T4 sequence (P62942 whole entry): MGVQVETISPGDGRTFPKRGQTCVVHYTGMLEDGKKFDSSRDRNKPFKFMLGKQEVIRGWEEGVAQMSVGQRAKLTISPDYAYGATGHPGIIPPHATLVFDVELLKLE
T2 sequence (Q15059 34-140 limits assumed): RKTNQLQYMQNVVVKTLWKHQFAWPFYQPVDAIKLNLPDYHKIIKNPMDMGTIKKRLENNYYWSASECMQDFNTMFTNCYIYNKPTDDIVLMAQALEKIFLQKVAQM
T3 sequence (Q15059 306-415 limits assumed): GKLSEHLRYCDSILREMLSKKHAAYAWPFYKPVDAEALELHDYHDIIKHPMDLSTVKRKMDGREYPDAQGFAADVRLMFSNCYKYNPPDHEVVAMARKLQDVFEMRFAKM
BRD2BD2, sequence (P25440 344-453 limits assumed): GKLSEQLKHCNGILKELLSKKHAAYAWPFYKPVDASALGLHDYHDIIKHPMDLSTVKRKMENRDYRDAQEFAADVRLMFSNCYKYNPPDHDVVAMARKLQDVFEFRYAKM
T1 sequence (P25440 74-180 limits assumed): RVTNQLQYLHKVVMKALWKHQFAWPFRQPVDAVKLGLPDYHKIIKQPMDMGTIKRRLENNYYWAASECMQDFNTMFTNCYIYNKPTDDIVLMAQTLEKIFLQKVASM

Structure (SMILES)	effect of CD36 inhibitor on myc repression upon a1dj treatment (MYC mRNA)	α BRD4 43-463 Y390A (BRD4 43-463 Y390A)	α BRD4 43-463 Y97A (BRD4 43-463 Y97A)	α BRD2BD1 (BRD2BD1)	α BRD2BD2 (BRD2BD2)	α BRD3BD1 (BRD3BD1)	α BRD3BD2 (BRD3BD2)	Kd (FKBP12 [1])	Kd (BRD4^BD1; [3])	Kd (BRD4^BD1; [4])	α BRD4^BD1 (binding cooperativity factor) (BRD4^BD1)	Kd (BRD4^BD2; [5])	α BRD4^BD2 (binding cooperativity factor) (BRD4^BD2)	IC50 (FKBP12 [2])	IC50 (BRD4)	Kd (BRD4^BD2; [6])	nanoBRET BRD4 IC50 (BRD4)
CCCCCCCC/C=C\CCCCCCCC(=O)ON1C(=O)CC(S(=O)(=O)O)C1=O (centres unmarked) [sulfosuccinimidyl oleate (SSO), sulfosuccinimidyl oleate, reference compound]	did not observe any effect	–	–	–	–	–	–	–	–	–	–	–	–	–	–	–	–
Cc1sc2c(c1C)C(c1ccc(Cl)cc1)=N[C@@H](CC(=O)OC(C)(C)C)c1nnc(C)n1-2 [JQ1, (+)-JQ1, reference compound]	–	1.0	1.2	1.0	1.0	1.0	1.0	–	–	–	–	–	–	–	–	–	–
Cc1sc2c(c1C)C(c1ccc(Cl)cc1)=NC(CC(=O)N1CC(CN3CCC(Cn4cc(COCC5CN(Cc6ccccn6)C(=O)C6CCCC5N6S(=O)(=O)c5cc(Cl)cc(Cl)c5)nn4)CC3)C1)c1nnc(C)n1-2 (centres unmarked) [a12d]	–	–	–	–	–	–	–	2.3 nM	250 ± 40 nM	40 ± 10 nM	6.3	590 ± 70 nM	1.9	406 nM	514 nM	–	–
C=CC1CN(Cc2ccccn2)C(=O)C2CCCC1N2S(=O)(=O)c1ccc(-c2cn(CCOCCNC(=O)CC3N=C(c4ccc(Cl)cc4)c4c(sc(C)c4C)-n4c(C)nnc43)nn2)c(Cl)c1 (centres unmarked) [a1h]	–	–	–	–	–	–	–	50 nM	100 ± 18 nM	1700 ± 200 nM	–	1100 ± 200 nM	–	530 nM	270 nM	52 ± 13 nM	–
Cc1sc2c(c1C)C(c1ccc(Cl)cc1)=NC(CC(=O)N1CCC(N3CCC(Cn4cc(C5CN(Cc6ccccn6)C(=O)C6CCCC5N6S(=O)(=O)c5cc(Cl)cc(Cl)c5)nn4)CC3)CC1)c1nnc(C)n1-2 (centres unmarked) [a10c]	–	–	–	–	–	–	–	0.3 nM	120 ± 30 nM	900 ± 100 nM	0.1	–	–	288 nM	497 nM	170 ± 30 nM	–
Cc1sc2c(c1C)C(c1ccc(Cl)cc1)=NC(CC(=O)N1CCN(CCCn3cc(COCC4CN(Cc5ccccn5)C(=O)C5CCCC4N5S(=O)(=O)c4cc(Cl)cc(Cl)c4)nn3)CC1)c1nnc(C)n1-2 (centres unmarked) [a5d]	–	–	–	–	–	–	–	1.2 nM	740 ± 100 nM	300 ± 50 nM	2.5	600 ± 100 nM	1.8	93 nM	1080 nM	–	–
Cc1sc2c(c1C)C(c1ccc(Cl)cc1)=NC(CC(=O)N1CCN(CCCCn3cc(COCC4CN(Cc5ccccn5)C(=O)C5CCCC4N5S(=O)(=O)c4cc(Cl)cc(Cl)c4)nn3)CC1)c1nnc(C)n1-2 (centres unmarked) [a6d]	–	–	–	–	–	–	–	0.9 nM	600 ± 80 nM	400 ± 50 nM	1.5	800 ± 200 nM	1.8	141 nM	787 nM	–	–
Cc1sc2c(c1C)C(c1ccc(Cl)cc1)=NC(CC(=O)N1CCC(N3CCC(n4cc(COCC5CN(Cc6ccccn6)C(=O)C6CCCC5N6S(=O)(=O)c5cc(Cl)cc(Cl)c5)nn4)CC3)CC1)c1nnc(C)n1-2 (centres unmarked) [a9d]	–	–	–	–	–	–	–	1.7 nM	340 ± 40 nM	140 ± 10 nM	2.4	450 ± 70 nM	1.1	169 nM	364 nM	500 ± 90 nM	–
C=CC1CN(Cc2cn(CCOCCOCCNC(=O)CC3N=C(c4ccc(Cl)cc4)c4c(sc(C)c4C)-n4c(C)nnc43)nn2)C(=O)C2CCCC1N2S(=O)(=O)c1cc(Cl)cc(Cl)c1 (centres unmarked) [a2i]	–	–	–	–	–	–	–	8.7 nM	330 ± 40 nM	290 ± 30 nM	1.1	960 ± 120 nM	0.1	180 nM	790 nM	140 ± 30 nM	–
Cc1sc2c(c1C)C(c1ccc(Cl)cc1)=NC(CC(=O)N1CCC(CN3CCC(n4cc(COCC5CN(Cc6ccccn6)C(=O)C6CCCC5N6S(=O)(=O)c5cc(Cl)cc(Cl)c5)nn4)CC3)CC1)c1nnc(C)n1-2 (centres unmarked) [a7d]	–	–	–	–	–	–	–	2.3 nM	680 ± 70 nM	310 ± 50 nM	2.2	660 ± 90 nM	1	209 nM	1110 nM	700 ± 100 nM	–
Cc1sc2c(c1C)C(c1ccc(Cl)cc1)=NC(CC(=O)NCCOCCn1cc(COC(C)C3CN(Cc4ccccn4)C(=O)C4CCCC3N4S(=O)(=O)c3cc(Cl)cc(Cl)c3)nn1)c1nnc(C)n1-2 (centres unmarked) [a1e]	–	–	–	–	–	–	–	8.9 nM	70 ± 10 nM	48 ± 7 nM	1.5	60 ± 10 nM	0.6	103 nM	390 nM	33 ± 9 nM	–
Cc1sc2c(c1C)C(c1ccc(Cl)cc1)=NC(CC(=O)N1CCC(N3CCC(Cn4cc(COCC5CN(Cc6ccccn6)C(=O)C6CCCC5N6S(=O)(=O)c5cc(Cl)cc(Cl)c5)nn4)CC3)CC1)c1nnc(C)n1-2 (centres unmarked) [a10d]	–	–	–	–	–	–	–	1.6 nM	140 ± 30 nM	100 ± 30 nM	1.4	80 ± 20 nM	2.1	241 nM	–	170 ± 30 nM	none
Cc1sc2c(c1C)C(c1ccc(Cl)cc1)=NC(CC(=O)NCCOCCOCCn1cc(C3CN(Cc4ccccn4)C(=O)C4CCCC3N4S(=O)(=O)c3cc(Cl)cc(Cl)c3)nn1)c1nnc(C)n1-2 (centres unmarked) [a2c]	–	–	–	–	–	–	–	0.6 nM	440 ± 70 nM	250 ± 40 nM	1.8	–	0.5	17 nM	620 nM	510 ± 110 nM	–
Cc1sc2c(c1C)C(c1ccc(Cl)cc1)=NC(CC(=O)NCCOCCn1cc(COC(C)C3CN(Cc4ccccn4)C(=O)C4CCCC3N4S(=O)(=O)c3cc(Cl)cc(Cl)c3)nn1)c1nnc(C)n1-2 (centres unmarked) [a1f]	–	–	–	–	–	–	–	1.6 nM	180 ± 20 nM	140 ± 14 nM	1.3	230 ± 30 nM	0.2	24 nM	560 nM	50 ± 14 nM	–
